The values below come from PubChem BioAssay (NCI).

Holding throughout (experiment): NCI-60 cell line screen, 48 h
The subject of assay [1] is DU-145 prostate.
The test system of assay [2] is OVCAR-4 ovarian.
The test system of assay [3] is MOLT-4 leukemia.
The test system of assay [4] is TK-10 renal.
In assay [5] the test system is HOP-92 NSCLC.
For assay [6], the system named is M14 melanoma.
Assay [7] concerns KM12 colon.
Assay [8] concerns NCI/ADR-RES ovarian.
The test system of assay [9] is HT29 colon.
Assay [10] deals with T-47D breast.

Structures are written as SMILES.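 Cultured in 96-well plates, cells were exposed to test compound for 48 hours across five concentrations. Abbreviation: GI50, concentration required for 50% inhibition of growth. TGI: concentration producing complete growth inhibition.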

Take `Clc1ccc(C2CC(c3cccc(Nc4ccncc4)c3)=NN2c2ccc(Cl)cc2)cc1` (stereo not drawn): the GI50 in [1] is 1880 nM; in assay [2], 1660 nM; in assay [3] it was 2180 nM; in assay [4] it was 1870 nM; in assay [5], 1380 nM. Moreover, the TGI in assay [1] worked out at 3.49 µM; in assay [2] it was 3.08 µM; in assay [3] it was 5.52 µM; in [4], 3.5 µM; in [5], 2.79 µM.

Consider `COc1ccc(C(=O)O[C@H]2CC[C@@]3(C)[C@@H]4CC[C@H]5[C@]6(O)C[C@H](O)[C@@]7(O)[C@@H](CN8C[C@@H](C)CC[C@H]8[C@@]7(C)O)[C@]6(O)C[C@@]53OC24O)cc1OC`, for which the TGI in assay [6], in assay [7], in assay [1], in [8], in [2] and in assay [3] was more than 100 µM each time. Also, the TGI in assay [9], in [4], in assay [10] and in assay [5] was more than 100 µM throughout.

In the case of `CC[C@@]1(OC(=O)CN(C)C)C(=O)OCc2c1cc1n(c2=O)Cc2cc3c(N)cccc3nc2-1`, the GI50 was 17.8 nM in assay [6]; 102 nM in assay [7]; 11.5 nM in [1]; 34 nM in assay [8]; 625 nM in assay [2]; less than 10 nM in assay [3]. The GI50 in assay [9] is 118 nM; in [4], 1680 nM; in assay [10], 25.3 nM; in [5] it was 23.9 nM. In addition, the TGI is 0.128 µM in assay [6]; 0.342 µM in assay [7]; 0.081 µM in assay [1]; 2.41 µM in assay [8]; 14.6 µM in assay [2]; 0.211 µM in assay [3]. For the same compound, the TGI in assay [9] is more than 100 µM; in assay [4] it was more than 100 µM; in assay [10], 0.868 µM; in assay [5] it was 0.785 µM.

Take `Clc1cc2ccccc2c2ccccc12`: the TGI in [6], in assay [7], in assay [1], in assay [8], in assay [2] and in assay [3] was more than 100 µM in each case. For the same compound, the TGI in assay [9] was more than 100 µM; in [4], more than 100 µM; in assay [10] it was more than 100 µM; in assay [5], 87.3 µM.

`NC1C=NNC1=O` (stereo not drawn): the TGI in assay [6], in [7], in [2], in [3], in [9] and in assay [4] was more than 100 µM in each case.

For the compound `CCC1C(C#N)=C(O)NC(O)=C1C#N`, the TGI in [6], in assay [7], in assay [2], in [9], in assay [4] and in assay [5] was more than 100 µM throughout.

Take `O=C(O)C(O)(c1ccc(-c2ccccc2)cc1)c1ccc(-c2ccccc2)cc1`: the TGI is more than 100 µM in [6]; 40.9 µM in [7]; 40.6 µM in assay [1]; 61.2 µM in assay [8]; more than 100 µM in assay [2]; more than 100 µM in assay [3]. Besides, the TGI in assay [9] was more than 100 µM; in assay [4], more than 100 µM; in [10], more than 100 µM; in assay [5], 41.4 µM.

For the compound `C[C@]12Cc3cnc(-c4ccccc4)nc3C[C@@H]1CC[C@@H]1[C@@H]2CC[C@@]2(C)[C@H]1CC[C@]2(C)O`, the TGI is 32.5 µM in assay [6]; more than 67.8 µM in assay [7]; 44.1 µM in assay [1]; 57 µM in [8]; 66.7 µM in [2]; more than 100 µM in assay [3]. In addition, the TGI worked out at 23.7 µM in assay [9], 39.1 µM in [4], 39.7 µM in [10] and 54.4 µM in assay [5].

Regarding `O=NN1C(c2ccccc2)C2CCCC(C2=O)C1c1ccccc1` (stereo not drawn), the TGI is 99.2 µM in assay [7]; more than 89.6 µM in assay [8]; 66.3 µM in assay [2]; more than 78.1 µM in [3]; 40.1 µM in [9]; 55.6 µM in assay [5].

Turning to `COc1ccc(C(=O)NC2=C(Cl)C(=O)c3ccccc3C2=O)cc1`, the TGI in assay [6] is 6.95 µM; in assay [7] it was 12.2 µM; in assay [1], 15.2 µM; in assay [8], 9.05 µM; in [2], 7.72 µM; in [3], more than 22 µM. The TGI worked out at 19.4 µM in assay [9], 7.7 µM in [4], 3.83 µM in assay [10] and 2.73 µM in [5].

In the case of `O=C1CCCC/C1=C1/SC(=Nc2ccccc2)C(=Nc2ccccc2)N1c1ccccc1`, the TGI in [6], in [7], in [1], in assay [8], in assay [3] and in assay [9] was more than 100 µM in each case. For the same compound, the TGI in [10] and in assay [5] was more than 100 µM throughout.

For the compound `COc1ccc(NC(=S)NNC(=O)c2nsc3ccccc23)cc1`, the TGI was 36.7 µM in assay [6]; more than 100 µM in assay [7]; more than 100 µM in assay [2]; 87.8 µM in [3]; more than 100 µM in assay [9]; more than 100 µM in assay [4]. The TGI in assay [5] amounted to 83.5 µM.
